The subject of test [1] is 290 kinases (excluding mutants). The conditions noted are these: cited from earlier work; for Gini: 38 inhibitors on 290 non-mutant kinases; for S10x: fraction of kinases hit at 10 times the Kd of the target.
Another test relates to 222 human kinases. Kind of test: Millipore kinase profiling (radioactive filter binding activity assay at [ATP] = KM,ATP) and selectivity metrics calculated from it. The following applies: for Ka-Gini score / Pmax / S10x / selectivity score: calculated from Millipore activity data; for selectivity entropy: calculated from Millipore activity data (pEC50), [ATP] = KM,ATP. Set-up: selectivity score: scale not given here. The class given is biochemical. The source says: As a next step we selected 16 compounds from the public profile (Ambit), and measured activity data on these using a different profiling service (Millipore, data available as Additional file 2). […] Also for these new data, we calculated the selectivity metrics (Uitdehaag_S2). In the ideal case, the selectivity values are similar irrespective of profiling technology (in the same way that a Kd value is ideally independent of laboratory and assay format). The data of both methods are plotted in Figure 2.
(§1) It is worth to note that the partition coefficient is the same as ϕl in our entropy equation (eq. 2).
The Gini score was calculated from data on %-inhibition. […] In addition, to work more directly with Kds, we also introduce a Ka-Gini score, in which association constants are used for rank-ordering the kinase profile. […] All calculations were done in Microsoft Excel.
For comparing profiles across methods (Figure 2), we selected 16 kinase inhibitors of the Ambit profile (Table 2) and submitted these to the kinase profiling service from Millipore (http://www.millipore.com/drugdiscovery/svp3/kpservices, data available as Additional file 2). Both profiling methods are described earlier and differ (among other variations) in the following way: Ambit uses a competitive binding setup in absence of ATP on kinases from T7 or HEK293 expression systems. Millipore uses a radioactive filter binding activity assay, with kinases purified from Escherichia coli or baculovirus expression systems.

The subject of test [2] is 290 kinases (excluding mutants). The class given is binding. The following applies: for Ka-Gini: Gini score calculated directly on Kas of the Ambit dataset (Kds of ref 5); for entropies (selectivity entropy, Ssel): calculated from Kds of the Ambit dataset (ref 5); for entropies (selectivity entropy, Ssel) / number of kinases inhibited below 3 μM: 290 kinases; for number of kinases inhibited below 3 μM: Ambit profile.
From the text: Having defined the entropy, we next investigated its performance relative to the most widely-used methods, on a public profiling dataset of 38 inhibitors on 290 non-mutant kinases (Table 1 and Additional file 1). […] To this we added a Ka-Gini value and the selectivity entropy. The Ka-Gini is a Gini score directly calculated on Kas, without reverting to %-inhibition values (see below). […] In addition, to get an overview of the profiling raw data, we appended an activity-based heat map (Uitdehaag_S1).
as §1
The Gini score was calculated from data on %-inhibition. […] In addition, to work more directly with Kds, we also introduce a Ka-Gini score, in which association constants are used for rank-ordering the kinase profile. […] All calculations were done in Microsoft Excel. […]

A further test addresses PDGFRβ. The conditions noted are these: Ambit profiling raw data; cited from earlier work.
[3] abbreviates: Ambit dataset, values taken from earlier work.
Where [4] appears, read: Ambit dataset, fraction of kinases hit below 3 μM, values taken from earlier work.
Setting [5] is: rank among 38 inhibitors, Ambit dataset.

Structures are written as SMILES. Where two headings read alike, the source gives them in different places.

On to `Cn1c(Nc2ccc(C(F)(F)F)cc2)nc2cc(Oc3ccnc(-c4ncc(C(F)(F)F)[nH]4)c3)ccc21` [CHIR265], for which, in test [1] (setting [3]), the Gini was 0.74. For the same compound, in the test with 222 human kinases, the Ka-Gini score is given as 0.982, the Pmax is reported as 0.304 and the S10x is 0.014. Moreover, the Ka-Gini in test [2] is 0.96.
In the case of `Cc1nc(Nc2ncc(C(=O)Nc3c(C)cccc3Cl)s2)cc(N2CCN(CCO)CC2)n1` [Dasatinib, dasatinib], the Gini in test [1] (setting [3]) is 0.79. Further, in the test on 222 human kinases, the Ka-Gini score is on record as 0.943, the Pmax was 0.041 and the S10x is listed as 0.070. Besides, in test [2], the Ka-Gini was 0.93.
For `Oc1cccc(-c2nc(N3CCOCC3)c3oc4ncccc4c3n2)c1` [PI-103], in test [1] (setting [3]), the Gini is given as 0.41, the S10x is 0.00 and the “Pmax (partition index)” value is listed as 0.97. Moreover, in the test on 222 human kinases, the Ka-Gini score is 0.995, the Pmax is given as 0.561, the S10x is 0.005 and the selectivity score was 0.014. Besides, in the test on 222 human kinases, the selectivity entropy is reported as 0.876. Further, in test [2], the Ka-Gini was 0.99 and the “entropies (selectivity entropy, Ssel)” value is given as 0.05.
Consider `CCN(CCO)CCCOc1ccc2c(Nc3cc(CC(=O)Nc4cccc(F)c4)[nH]n3)ncnc2c1` [AZD1152HQPA], for which, in test [1] (setting [3]), the Gini is 0.78, the S10x is given as 0.02 and the “Pmax (partition index)” value was 0.34. Further, the “S3uM (selectivity score S(3 μM))” value in test [1] (setting [4]) is given as 0.10. In the test on 222 human kinases, the Ka-Gini score was 0.993, the Pmax is given as 0.603, the S10x is 0.007 and the selectivity score is recorded as 0.041. Further, the selectivity entropy in the test with 222 human kinases is given as 1.366. For the same compound, in test [2], the Ka-Gini is listed as 0.98 and the “entropies (selectivity entropy, Ssel)” value is 1.91.
For `Cc1cc(Nc2cc(N3CCN(C)CC3)nc(Sc3ccc(NC(=O)C4CC4)cc3)n2)[nH]n1` [VX-680, tozasertib], in test [1] (setting [3]), the Gini is 0.76, the S10x is 0.03 and the “Pmax (partition index)” value is given as 0.15. The “S3uM (selectivity score S(3 μM))” value in test [1] (setting [4]) is given as 0.38. For the same compound, in the test on 222 human kinases, the Ka-Gini score is on record as 0.972, the Pmax is given as 0.278, the S10x is 0.020 and the selectivity score was 0.199. In addition, the selectivity entropy with 222 human kinases is recorded as 2.625. For the same compound, in test [2], the Ka-Gini is 0.93 and the “entropies (selectivity entropy, Ssel)” value is given as 3.09.
Regarding `O=C(O)c1ccc(Nc2ncc3c(n2)-c2ccc(Cl)cc2C(c2c(F)cccc2F)=NC3)cc1` [MLN-8054], in test [1] (setting [3]), the Gini is recorded as 0.75, the S10x is reported as 0.01 and the “Pmax (partition index)” value was 0.36. Moreover, the “S3uM (selectivity score S(3 μM))” value in test [1] (setting [4]) is reported as 0.13. Further, in the test on 222 human kinases, the Ka-Gini score is on record as 0.980, the Pmax was 0.617, the S10x is recorded as 0.002 and the selectivity score is 0.154. The selectivity entropy in the test with 222 human kinases is given as 1.903. Further, in test [2], the Ka-Gini is reported as 0.97 and the “entropies (selectivity entropy, Ssel)” value is reported as 1.95.
For the compound `O=c1ncn2nc(Sc3ccc(F)cc3F)ccc2c1-c1c(Cl)cccc1Cl` [VX-745], in test [1] (setting [3]), the Gini was 0.51, the S10x is given as 0.00 and the “Pmax (partition index)” value is listed as 0.92. For the same compound, the “S3uM (selectivity score S(3 μM))” value in test [1] (setting [4]) is 0.03. In the test on 222 human kinases, the Ka-Gini score was 0.997, the Pmax is recorded as 0.820, the S10x is recorded as 0.005 and the selectivity entropy was 0.590. Further, in test [2], the Ka-Gini is 0.99 and the “entropies (selectivity entropy, Ssel)” value is reported as 0.28.
As to `COc1cc2c(N3CCN(C(=O)Nc4ccc(OC(C)C)cc4)CC3)ncnc2cc1OCCCN1CCCCC1` [MLN-518, tandutinib], in test [1] (setting [3]), the Gini is on record as 0.74, the S10x was 0.01 and the “Pmax (partition index)” value is recorded as 0.26. The “potencies on the 4 kinases hit with roughly equal potencies” value in test [1] (Ambit profile, 4 kinases not named) was 2 to 10 nM. Also, the “S3uM (selectivity score S(3 μM))” value in test [1] is recorded as 0.06. Further, in the test with 222 human kinases, the Ka-Gini score is 0.993, the Pmax was 0.621, the S10x is reported as 0.005 and the selectivity score is listed as 0.032. Besides, the selectivity entropy with 222 human kinases was 1.300. In test [2], the “number of kinases inhibited below 3 μM” value came out at 10 kinases; the Ka-Gini was 0.98; the “entropies (selectivity entropy, Ssel)” value is 1.58. Also, in test [2] (setting [5]), the “selectivity rank by Ka-Gini” value was 14, the “selectivity rank by Pmax” value was determined as 26 and the “selectivity rank by selectivity entropy” value came out at 15.
Turning to `CCN(CC)CCNC(=O)c1c(C)[nH]c(/C=C2\C(=O)Nc3ccc(F)cc32)c1C` [Sunitinib, sunitinib], in test [1] (setting [3]), the Gini was 0.67 and the S10x was 0.02. Besides, in the test on 222 human kinases, the Pmax is reported as 0.107 and the S10x is on record as 0.038. Further, the “number of kinases inhibited below 3 μM” value in test [2] amounted to 181 kinases.
Take `COc1cc2c(Nc3ccc(Br)cc3F)ncnc2cc1OCC1CCN(C)CC1` [ZD-6474, vandetanib]: in test [1] (setting [3]), the Gini is listed as 0.79 and the S10x is 0.26. Moreover, in the test on 222 human kinases, the Ka-Gini score is recorded as 0.963, the Pmax was 0.117 and the S10x is 0.041. In test [2], the “number of kinases inhibited below 3 μM” value turned out to be 79 kinases and the Ka-Gini is on record as 0.94.
In the case of `Cc1[nH]c(/C=C2\C(=O)Nc3ccc(F)cc32)c(C)c1C(=O)NC[C@H](O)CN1CCOCC1` [SU-14813], in test [1] (setting [3]), the Gini is recorded as 0.70, the S10x was 0.02 and the “Pmax (partition index)” value is given as 0.18. In test [1] (setting [4]), the “S3uM (selectivity score S(3 μM))” value is 0.51. On PDGFRβ, the Kd is 0.29 nM. Besides, in test [2], the Ka-Gini was 0.97 and the “entropies (selectivity entropy, Ssel)” value is listed as 2.04.
For the compound `CNC(=O)c1cc(Oc2ccc(NC(=O)Nc3ccc(Cl)c(C(F)(F)F)c3)cc2)ccn1` [Sorafenib, sorafenib], in test [1] (setting [3]), the Gini is 0.82 and the S10x is 0.10. Further, in the test on 222 human kinases, the Ka-Gini score is given as 0.975, the Pmax was 0.149 and the S10x was 0.029. Besides, in test [2], the Ka-Gini is on record as 0.97.
As to `Cc1ccc(-n2nc(C(C)(C)C)cc2NC(=O)Nc2ccc(OCCN3CCOCC3)c3ccccc23)cc1` [BIRB-796, doramapimod], the Gini in test [1] (setting [3]) is 0.81. In the test on 222 human kinases, the Ka-Gini score was 0.984, the Pmax is reported as 0.440 and the S10x is listed as 0.011. Moreover, the Ka-Gini in test [2] is given as 0.99.

Source of the values: publication PMC3100252, “A theoretical entropy score as a single value to express inhibitor selectivity” (BMC Bioinformatics, 2011).
